Laboratory results reported in PubChem BioAssay AID248 (DTP/NCI, 2004).
Several values for one entry are separate records, joined by “and”; a condition that tells them apart may be missing. Equal entries are not always repeated. Inconclusive results and toxic doses are left out. Rule as the data show it: active = T/C of 150% or more; inactive = T/C below 125%.

Tested on: L1210 leukemia ip in BDF1 mice, survival T/C
Test: NCI In Vivo Anticancer Drug Screen. Data for tumor model L1210 Leukemia (intraperitoneal) in B6D2F1 (BDF1) mice
Conditions: endpoint: mean survival time, higher = longer survival
How it was run: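 Read-out is survival time, reported as the treated-group measurement over the vehicle-control measurement.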

[1] = dose: 100.0 mg/kg/injection, schedule: Q04DX003 (ip), vehicle: saline sonified
[2] = dose: 200.0 mg/kg/injection, schedule: Q04DX003 (ip), vehicle: saline sonified
[3] = dose: 400.0 mg/kg/injection, schedule: Q04DX003 (ip), vehicle: saline sonified
[4] = dose: 100.0 mg/kg/injection, schedule: Q01DX001 (ip), vehicle: saline
[5] = dose: 200.0 mg/kg/injection, schedule: Q01DX001 (ip), vehicle: saline
[6] = dose: 400.0 mg/kg/injection, schedule: Q01DX001 (ip), vehicle: saline
[7] = dose: 100.0 mg/kg/injection, schedule: Q04DX003 (ip), vehicle: saline with Tween-80
[8] = dose: 200.0 mg/kg/injection, schedule: Q04DX003 (ip), vehicle: saline with Tween-80
[9] = dose: 400.0 mg/kg/injection, schedule: Q04DX003 (ip), vehicle: saline with Tween-80
[10] = dose: 100.0 mg/kg/injection, schedule: Q01DX009 (ip), vehicle: Klucel (hydroxypropylcellulose) (HPC)
[11] = dose: 200.0 mg/kg/injection, schedule: Q01DX009 (ip), vehicle: Klucel (hydroxypropylcellulose) (HPC)
[12] = dose: 400.0 mg/kg/injection, schedule: Q01DX009 (ip), vehicle: Klucel (hydroxypropylcellulose) (HPC)
[13] = dose: 100.0 mg/kg/injection, schedule: Q01DX001 (ip), vehicle: other
[14] = dose: 200.0 mg/kg/injection, schedule: Q01DX001 (ip), vehicle: other
[15] = dose: 400.0 mg/kg/injection, schedule: Q01DX001 (ip), vehicle: other

Measured: T/C

CC[N+]1(C)CCOCC1
inactive: dose: 75.0 mg/kg/injection, schedule: Q01DX001 (ip), vehicle: saline 96 % of control and 94 % of control and 107 % of control | dose: 150.0 mg/kg/injection, schedule: Q01DX001 (ip), vehicle: saline 94 % of control and 100 % of control and 98 % of control | dose: 300.0 mg/kg/injection, schedule: Q01DX001 (ip), vehicle: saline 96 % of control and 98 % of control

COc1ccc(CC#N)cc1
inactive: dose: 2.5 mg/kg/injection, schedule: Q04DX002 (ip), vehicle: Klucel (hydroxypropylcellulose) (HPC) 103 % of control | dose: 5.0 mg/kg/injection, schedule: Q01DX009 (ip), vehicle: Klucel (hydroxypropylcellulose) (HPC) 91 % of control | dose: 5.0 mg/kg/injection, schedule: Q04DX002 (ip), vehicle: Klucel (hydroxypropylcellulose) (HPC) 98 % of control | dose: 10.0 mg/kg/injection, schedule: Q01DX009 (ip), vehicle: Klucel (hydroxypropylcellulose) (HPC) 89 % of control | dose: 10.0 mg/kg/injection, schedule: Q04DX002 (ip), vehicle: Klucel (hydroxypropylcellulose) (HPC) 98 % of control and 110 % of control | dose: 20.0 mg/kg/injection, schedule: Q01DX009 (ip), vehicle: Klucel (hydroxypropylcellulose) (HPC) 92 % of control

N#C/C(=C\c1cccn1Cc1cc2c(cc1[N+](=O)[O-])OCO2)C(N)=O
inactive: dose: 25.0 mg/kg/injection, schedule: Q04DX002 (ip), vehicle: Klucel (hydroxypropylcellulose) (HPC) 96 % of control | dose: 50.0 mg/kg/injection, schedule: Q04DX002 (ip), vehicle: Klucel (hydroxypropylcellulose) (HPC) 96 % of control | dose: 100.0 mg/kg/injection, schedule: Q04DX002 (ip), vehicle: Klucel (hydroxypropylcellulose) (HPC) 96 % of control

CC1(C)CSCC(C)(C)C(=O)C1=O
inactive: dose: 50.0 mg/kg/injection, schedule: Q04DX002 (ip), vehicle: saline with Tween-80 100 % of control | dose: 100.0 mg/kg/injection, schedule: Q04DX002 (ip), vehicle: saline with Tween-80 109 % of control | dose: 200.0 mg/kg/injection, schedule: Q04DX002 (ip), vehicle: saline with Tween-80 103 % of control

CN(C)C(C#N)c1c[nH]c2ccccc12 (stereo unspecified)
inactive: dose: 12.5 mg/kg/injection, schedule: Q01DX009 (ip), vehicle: Klucel (hydroxypropylcellulose) (HPC) 87 % of control | dose: 12.5 mg/kg/injection, schedule: Q04DX003 (ip), vehicle: Klucel (hydroxypropylcellulose) (HPC) 97 % of control | dose: 25.0 mg/kg/injection, schedule: Q01DX009 (ip), vehicle: Klucel (hydroxypropylcellulose) (HPC) 97 % of control | dose: 25.0 mg/kg/injection, schedule: Q04DX003 (ip), vehicle: Klucel (hydroxypropylcellulose) (HPC) 97 % of control | dose: 50.0 mg/kg/injection, schedule: Q04DX003 (ip), vehicle: Klucel (hydroxypropylcellulose) (HPC) 94 % of control

CCCNCCN
inactive: dose: 50.0 mg/kg/injection, schedule: Q01DX009 (ip), vehicle: saline 98 % of control | dose: 100.0 mg/kg/injection, schedule: Q01DX009 (ip), vehicle: saline 102 % of control | dose: 100.0 mg/kg/injection, schedule: Q04DX003 (ip), vehicle: saline 97 % of control | dose: 200.0 mg/kg/injection, schedule: Q04DX003 (ip), vehicle: saline 99 % of control

c1ccc(-c2ncnc3c2Cc2ccccc2-3)cc1
inactive: [1] 92 % of control | [2] 94 % of control | [3] 97 % of control

CCCCCCc1cc2ccccc2cc1CCCC
inactive: [4] 102 % of control | [5] 100 % of control | [6] 97 % of control

c1ccc(SCC2C3CSC4C3CC2C4Sc2ccccc2)cc1 (stereo unspecified)
inactive: dose: 100.0 mg/kg/injection, schedule: Q01DX001 (ip), vehicle: saline with Tween-80 98 % of control | dose: 200.0 mg/kg/injection, schedule: Q01DX001 (ip), vehicle: saline with Tween-80 105 % of control | dose: 400.0 mg/kg/injection, schedule: Q01DX001 (ip), vehicle: saline with Tween-80 94 % of control

Clc1ccc(CC23CCCCC2N3)cc1 (stereo unspecified)
inactive: [1] 95 % of control | [2] 108 % of control | [3] 105 % of control

O=C(O)CCS(=O)(=O)c1ccc(N(CCCl)CCCl)cc1
inactive: [7] 107 % of control | [8] 102 % of control | [9] 105 % of control

CCCCCCCCN(c1ccc(C(=O)O)cc1)S(=O)(=O)c1ccc(C)cc1
inactive: dose: 75.0 mg/kg/injection, schedule: Q01DX009 (ip), vehicle: Klucel (hydroxypropylcellulose) (HPC) 103 % of control | dose: 150.0 mg/kg/injection, schedule: Q01DX009 (ip), vehicle: Klucel (hydroxypropylcellulose) (HPC) 100 % of control | dose: 300.0 mg/kg/injection, schedule: Q01DX009 (ip), vehicle: Klucel (hydroxypropylcellulose) (HPC) 90 % of control

Cc1cccc(C)c1NC(=O)Nc1cccc(O)c1
inactive: [10] 101 % of control | [11] 108 % of control | [12] 103 % of control

O=C(CSCc1ccccc1)c1ccccc1
inactive: [7] 90 % of control | [8] 90 % of control | [9] 100 % of control

B1CCN1
inactive: dose: 9.5 mg/kg/injection, schedule: Q01DX001 (ip), vehicle: saline 94 % of control | dose: 19.0 mg/kg/injection, schedule: Q01DX001 (ip), vehicle: saline 103 % of control

CN(O)C(=O)OC(C)(C)C
inactive: [13] 108 % of control | [14] 108 % of control | [15] 114 % of control

c1ccc(CN2C3c4ccccc4C2c2ccccc23)cc1
inactive: [4] 96 % of control | [5] 112 % of control | [6] 95 % of control

O=C(NC(Cc1ccccc1)C(=O)Oc1cc(Cl)c(Cl)cc1Cl)OCc1ccccc1 (stereo unspecified)
inactive: [13] 91 % of control | [14] 91 % of control | [15] 97 % of control

CCCCCCCC[Si](CCCCCCCC)CCCCCCCC
inactive: dose: 100.0 mg/kg/injection, schedule: Q04DX003 (ip), vehicle: acetone 95 % of control | dose: 200.0 mg/kg/injection, schedule: Q04DX003 (ip), vehicle: acetone 91 % of control | dose: 400.0 mg/kg/injection, schedule: Q04DX003 (ip), vehicle: acetone 98 % of control

O=C1OC(=O)C(=C(c2ccccc2)c2ccccc2)C1=C(c1ccccc1)c1ccccc1
inactive: [10] 101 % of control | [11] 92 % of control | [12] 92 % of control

O=c1c(N=Nc2ccc(Br)cc2)c(O)n(-c2ccccc2Cl)c(=S)n1-c1ccccc1
inactive: dose: 75.0 mg/kg/injection, schedule: Q01DX001 (ip), vehicle: Klucel (hydroxypropylcellulose) (HPC) 90 % of control | dose: 150.0 mg/kg/injection, schedule: Q01DX001 (ip), vehicle: Klucel (hydroxypropylcellulose) (HPC) 101 % of control

[O]=[V]([OH])([OH])[OH]
inactive: dose: 2.0 mg/kg/injection, schedule: Q01DX015 (ip), vehicle: saline 101 % of control | dose: 4.0 mg/kg/injection, schedule: Q01DX015 (ip), vehicle: saline 103 % of control | dose: 8.0 mg/kg/injection, schedule: Q01DX015 (ip), vehicle: saline 103 % of control | dose: 12.5 mg/kg/injection, schedule: Q01DX001 (ip), vehicle: saline 113 % of control | dose: 16.0 mg/kg/injection, schedule: Q01DX015 (ip), vehicle: saline 108 % of control | dose: 25.0 mg/kg/injection, schedule: Q01DX001 (ip), vehicle: saline 96 % of control | dose: 32.0 mg/kg/injection, schedule: Q01DX015 (ip), vehicle: saline 103 % of control | dose: 50.0 mg/kg/injection, schedule: Q01DX001 (ip), vehicle: saline 98 % of control | dose: 64.0 mg/kg/injection, schedule: Q01DX015 (ip), vehicle: saline 88 % of control
